In patent US20140058103A1, “Inhibitors of PI3K-Delta and Methods of Their Use and Manufacture” (Exelixis, Inc., priority 2010, published 2014):
pIC50: −log10 of the molar value.

Molecular target: PI3K delta (Homo sapiens, UniProt O00329)
Assay: Luciferase-coupled chemiluminescence kinase assay (ATP consumption, KinaseGlo)
Format: biochemical
Method in brief: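 ATP consumption measured by KinaseGlo luciferase chemiluminescence after a 2 h reaction at ambient temperature, with ATP at or below the kinase KM. Ten inhibitor concentrations per curve; IC50 from four-parameter nonlinear regression.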

PI3K delta, sequence (O00329 whole entry): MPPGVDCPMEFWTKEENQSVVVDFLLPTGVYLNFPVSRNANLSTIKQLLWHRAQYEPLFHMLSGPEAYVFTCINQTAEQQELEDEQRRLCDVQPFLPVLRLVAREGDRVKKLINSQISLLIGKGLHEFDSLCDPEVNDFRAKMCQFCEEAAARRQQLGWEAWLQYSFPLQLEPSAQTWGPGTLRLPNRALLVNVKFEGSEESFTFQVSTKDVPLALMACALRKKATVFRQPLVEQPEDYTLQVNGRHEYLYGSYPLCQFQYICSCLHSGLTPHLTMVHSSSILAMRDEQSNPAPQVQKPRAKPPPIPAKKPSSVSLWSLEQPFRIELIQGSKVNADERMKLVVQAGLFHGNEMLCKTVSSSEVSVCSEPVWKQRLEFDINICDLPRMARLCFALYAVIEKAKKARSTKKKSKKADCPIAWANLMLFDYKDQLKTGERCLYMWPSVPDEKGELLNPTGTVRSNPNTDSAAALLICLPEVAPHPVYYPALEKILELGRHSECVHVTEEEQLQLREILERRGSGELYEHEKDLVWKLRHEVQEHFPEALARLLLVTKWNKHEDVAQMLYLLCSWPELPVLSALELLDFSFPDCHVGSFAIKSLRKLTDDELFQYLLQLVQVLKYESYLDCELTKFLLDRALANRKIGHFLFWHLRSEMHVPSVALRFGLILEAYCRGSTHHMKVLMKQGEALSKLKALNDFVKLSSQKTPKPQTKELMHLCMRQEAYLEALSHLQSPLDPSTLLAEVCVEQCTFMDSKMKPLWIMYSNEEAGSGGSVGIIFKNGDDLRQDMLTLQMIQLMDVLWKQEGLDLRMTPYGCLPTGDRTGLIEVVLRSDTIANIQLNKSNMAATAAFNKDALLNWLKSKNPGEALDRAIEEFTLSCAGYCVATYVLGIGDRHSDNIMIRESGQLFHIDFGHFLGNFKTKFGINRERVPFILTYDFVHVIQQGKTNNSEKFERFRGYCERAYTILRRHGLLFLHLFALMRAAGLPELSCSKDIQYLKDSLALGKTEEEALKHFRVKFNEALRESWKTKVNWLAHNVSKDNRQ
PI3K delta, sequence (P27986 whole entry partner): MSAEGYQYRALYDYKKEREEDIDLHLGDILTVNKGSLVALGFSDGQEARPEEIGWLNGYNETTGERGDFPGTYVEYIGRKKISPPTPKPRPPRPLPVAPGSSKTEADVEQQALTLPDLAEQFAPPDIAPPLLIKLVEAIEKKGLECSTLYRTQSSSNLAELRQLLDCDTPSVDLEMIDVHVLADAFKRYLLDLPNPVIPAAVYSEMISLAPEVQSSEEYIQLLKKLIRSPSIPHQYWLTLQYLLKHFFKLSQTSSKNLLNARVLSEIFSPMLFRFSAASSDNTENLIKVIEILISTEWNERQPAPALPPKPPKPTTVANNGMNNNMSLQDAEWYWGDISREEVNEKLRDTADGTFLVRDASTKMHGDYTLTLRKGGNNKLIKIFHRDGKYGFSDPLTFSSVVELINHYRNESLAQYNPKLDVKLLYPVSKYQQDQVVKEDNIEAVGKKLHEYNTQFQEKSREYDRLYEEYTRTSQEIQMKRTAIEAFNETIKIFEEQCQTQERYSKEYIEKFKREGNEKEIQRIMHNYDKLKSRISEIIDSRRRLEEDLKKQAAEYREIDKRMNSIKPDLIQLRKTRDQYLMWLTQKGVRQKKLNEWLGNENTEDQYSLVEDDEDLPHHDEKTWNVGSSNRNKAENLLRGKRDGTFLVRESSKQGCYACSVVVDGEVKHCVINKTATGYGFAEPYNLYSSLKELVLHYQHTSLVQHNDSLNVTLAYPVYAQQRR

| SMILES | pIC50 |
| --- | --- |
| Cc1ccc(-c2nc3c(N4CCC(n5c(=O)[nH]c6ccccc65)CC4)ncnc3n2C)o1 [Compound 115, 1-{1-[9-methyl-8-(5-methylfuran-2-yl)-9H-purin-6-yl]piperidin-4-yl}-1,3-dihydro-2H-benzimidazol-2-one] | 6.30 to 6.60 |
| Cn1c(C(=O)NC2CCC(F)(F)CC2)nc2c(N3CCC(n4c(=O)[nH]c5ccccc54)CC3)ncnc21 [Compound 107, N-(4,4-difluorocyclohexyl)-9-methyl-6-[4-(2-oxo-2,3-dihydro-1H-benzimidazol-1-yl)piperidin-1-yl]-9H-purine-8-carboxamide] | 6.60 to 7.30 |
| CC(C)CNC(=O)c1nc2c(N3CCC(n4c(=O)[nH]c5ccccc54)CC3)ncnc2n1C [Compound 67, 9-methyl-N-(2-methylpropyl)-6-[4-(2-oxo-2,3-dihydro-1H-benzimidazol-1-yl)piperidin-1-yl]-9H-purine-8-carboxamide] | > 7.30 |
| CCn1cc(-c2nc3c(N4CCN(C5=NS(=O)(=O)c6ccccc65)CC4)ncnc3n2C)cn1 [Compound 349, 6-[4-(1,1-dioxido-1,2-benzisothiazol-3-yl)piperazin-1-yl]-8-(1-ethyl-1H-pyrazol-4-yl)-9-methyl-9H-purine] | 6.60 to 7.30 |
| Cn1c(C(=O)NCC2CC2)nc2c(N3CCC(n4nnc5ccccc54)CC3)ncnc21 [Compound 143, 6-[4-(1H-1,2,3-benzotriazol-1-yl)piperidin-1-yl]-N-(cyclopropylmethyl)-9-methyl-9H-purine-8-carboxamide] | 5.82 to 6.30 |
| Cn1c(-c2ccccc2)nc2c(N3CCC(n4c(=O)[nH]c5ccccc54)CC3)ncnc21 [Compound 267, 1-[1-(9-methyl-8-phenyl-9H-purin-6-yl)piperidin-4-yl]-1,3-dihydro-2H-benzimidazol-2-one] | 5.82 to 6.30 |
| CCn1c(C(=O)N2CC[C@@H](F)C2)nc2c(N3CCC4(CC3)C(=O)Nc3ccccc34)ncnc21 [Compound 213] | > 7.30 |
| Cn1c(C(=O)NCC2CC2)nc2c(N3CCC(n4c(=O)oc5ccccc54)CC3)ncnc21 [Compound 118, N-(cyclopropylmethyl)-9-methyl-6-[4-(2-oxo-1,3-benzoxazol-3(2H)-yl)piperidin-1-yl]-9H-purine-8-carboxamide] | 6.60 to 7.30 |
| Cn1c(C(=O)NCC2CC2)nc2c(N3CCC4(CC3)c3ccccc3CC4O)ncnc21 (stereo not drawn) [Compound 130, N-(cyclopropylmethyl)-6-(2-hydroxy-2,3-dihydro-1′H-spiro[indene-1,4′-piperidin]-1′-yl)-9-methyl-9H-purine-8-carboxamide] | 6.60 to 7.30 |
| COc1ccc(CNC(=O)c2nc3c(N4CCC5(CC4)C(=O)Nc4ccccc45)ncnc3n2C)cc1 [Compound 29, 9-methyl-N-([4-(methyloxy)phenyl]methyl)-6-(2-oxo-1,2-dihydro-1′H-spiro[indole-3,4′-piperidin]-1′-yl)-9H-purine-8-carboxamide] | 5.82 to 6.30 |
| Cn1c(C(=O)NCCCCO)nc2c(N3CCC4(CC3)C(=O)Nc3ccccc34)ncnc21 [Compound 13, N-(4-hydroxybutyl)-9-methyl-6-(2-oxo-1,2-dihydro-1′H-spiro[indole-3,4′-piperidin]-1′-yl)-9H-purine-8-carboxamide] | 6.60 to 7.30 |
| CCCNC(=O)c1nc2c(N3CCC4(CC3)C(=O)Nc3ccccc34)ncnc2n1CC [Compound 220, 9-ethyl-6-(2-oxo-1,2-dihydro-1′H-spiro[indole-3,4′-piperidin]-1′-yl)-N-propyl-9H-purine-8-carboxamide] | > 7.30 |
| CCn1cc(-c2nc3c(N4CCC(n5c(=O)[nH]c6ncccc65)CC4)ncnc3n2C)cn1 [Compound 322, 1-{1-[8-(1-ethyl-1H-pyrazol-4-yl)-9-methyl-9H-purin-6-yl]piperidin-4-yl}-1,3-dihydro-2H-imidazo[4,5-b]pyridin-2-one] | > 7.30 |
| CCn1c(C(=O)NC(C)C)nc2c(N3CCC4(CC3)C(=O)Nc3ccccc34)ncnc21 [Compound 223, 9-ethyl-N-(1-methylethyl)-6-(2-oxo-1,2-dihydro-1′H-spiro[indole-3,4′-piperidin]-1′-yl)-9H-purine-8-carboxamide] | > 7.30 |
| Cn1c(C(=O)NCc2ccncc2)nc2c(N3CCC(n4c(=O)[nH]c5ccccc54)CC3)ncnc21 [Compound 52, 9-methyl-6-[4-(2-oxo-2,3-dihydro-1H-benzimidazol-1-yl)piperidin-1-yl]-N-(pyridin-4-ylmethyl)-9H-purine-8-carboxamide] | 6.60 to 7.30 |
| Cn1cc(-c2nc3c(N4CC[C@@H](n5c(=O)[nH]c6ccccc65)[C@H](C(=O)O)C4)ncnc3n2C)cn1 [Compound 347, (3R,4R)-1-[9-methyl-8-(1-methyl-1H-pyrazol-4-yl)-9H-purin-6-yl]-4-(2-oxo-2,3-dihydro-1H-benzimidazol-1-yl)piperidine-3-carboxylic acid] | 5.82 to 6.30 |
| CCn1c(C(=O)N[C@H]2CC[C@H](O)CC2)nc2c(N3CCC(n4c(=O)[nH]c5ccccc54)CC3)ncnc21 [Compound 154, 9-ethyl-N-(trans-4-hydroxycyclohexyl)-6-[4-(2-oxo-2,3-dihydro-1H-benzimidazol-1-yl)piperidin-1-yl]-9H-purine-8-carboxamide] | > 7.30 |

| SMILES | pIC50 |
| --- | --- |
| CCn1c(C(=O)NCC2CCOCC2)nc2c(N3CCC4(CC3)C(=O)Nc3ccccc34)ncnc21 [Compound 161, 9-ethyl-6-(2-oxo-1,2-dihydro-1′H-spiro[indole-3,4′-piperidin]-1′-yl)-N-(tetrahydro-2H-pyran-4-ylmethyl)-9H-purine-8-carboxamide] | > 7.30 |
| Cc1ccc(CCNC(=O)c2nc3c(N4CCC(n5c(=O)[nH]c6ccccc65)CC4)ncnc3n2C)cc1 [Compound 64, 9-methyl-N-[2-(4-methylphenyl)ethyl]-6-[4-(2-oxo-2,3-dihydro-1H-benzimidazol-1-yl)piperidin-1-yl]-9H-purine-8-carboxamide] | 5.82 to 6.30 |
| Cn1c(C(=O)NCC2CC2)nc2c(N3CCC(c4c[nH]c5ccccc45)CC3)ncnc21 [Compound 100, N-(cyclopropylmethyl)-6-[4-(1H-indol-3-yl)piperidin-1-yl]-9-methyl-9H-purine-8-carboxamide] | 5.82 to 6.30 |
| Cn1cc(-c2nc3c(N4CCN(c5cccc(OCC(=O)NC6CCCC6)c5)CC4)ncnc3n2C)cn1 [Compound 356, N-cyclopentyl-2-[(3-{4-[9-methyl-8-(1-methyl-1H-pyrazol-4-yl)-9H-purin-6-yl]piperazin-1-yl}phenyl)oxy]acetamide] | 5.82 to 6.30 |
| Cn1c(C(=O)NCC2CCCOC2)nc2c(N3CCC(n4c(=O)[nH]c5ccccc54)CC3)ncnc21 (stereo not drawn) [Compound 11, 9-methyl-6-[4-(2-oxo-2,3-dihydro-1H-benzimidazol-1-yl)piperidin-1-yl]-N-(tetrahydro-2H-pyran-3-ylmethyl)-9H-purine-8-carboxamide] | 6.30 to 6.60 |
| Cn1c(C(=O)NCC2CC2)nc2c(N3CCC(n4c(=S)[nH]c5ccccc54)CC3)ncnc21 [Compound 169, N-(cyclopropylmethyl)-9-methyl-6-[4-(2-thioxo-2,3-dihydro-1H-benzimidazol-1-yl)piperidin-1-yl]-9H-purine-8-carboxamide] | 6.60 to 7.30 |
| Cn1c(N2CCCC2)nc2c(N3CCC(n4c(=O)[nH]c5ccccc54)CC3)ncnc21 [Compound 126, 1-[1-(9-methyl-8-pyrrolidin-1-yl-9H-purin-6-yl)piperidin-4-yl]-1,3-dihydro-2H-benzimidazol-2-one] | 5.82 to 6.30 |
| Cn1c(C(=O)NCC2CC2)nc2c(N3CC=C(n4c(=O)[nH]c5ccccc54)CC3)ncnc21 [Compound 289, N-(cyclopropylmethyl)-9-methyl-6-[4-(2-oxo-2,3-dihydro-1H-benzimidazol-1-yl)-3,6-dihydropyridin-1(2H)-yl]-9H-purine-8-carboxamide] | 6.60 to 7.30 |
| Cc1[nH]ncc1-c1nc2c(N3CCC(n4c(=O)[nH]c5ccccc54)CC3)ncnc2n1C [Compound 242, 1-{1-[9-methyl-8-(5-methyl-1H-pyrazol-4-yl)-9H-purin-6-yl]piperidin-4-yl}-1,3-dihydro-2H-benzimidazol-2-one] | > 7.30 |
| Cn1c(C(=O)NCC2CC2)nc2c(N3CCC(N4C(=O)NCc5ccccc54)CC3)ncnc21 [Compound 248, N-(cyclopropylmethyl)-9-methyl-6-[4-(2-oxo-3,4-dihydroquinazolin-1(2H)-yl)piperidin-1-yl]-9H-purine-8-carboxamide] | 6.30 to 6.60 |
| Cn1c(C(=O)NCC2CC2)nc2c(N3CCC(n4c(=O)[nH]c5c(Cl)cccc54)CC3)ncnc21 [Compound 230, 6-[4-(4-chloro-2-oxo-2,3-dihydro-1H-benzimidazol-1-yl)piperidin-1-yl]-N-(cyclopropylmethyl)-9-methyl-9H-purine-8-carboxamide] | 6.60 to 7.30 |
| Cn1c(-c2cnc3[nH]ccc3c2)nc2c(N3CCC(n4c(=O)[nH]c5ccccc54)CC3)ncnc21 [Compound 302, 1-{1-[9-methyl-8-(1H-pyrrolo[2,3-b]pyridin-5-yl)-9H-purin-6-yl]piperidin-4-yl}-1,3-dihydro-2H-benzimidazol-2-one] | > 7.30 |
| CC(C)N(C)C(=O)c1nc2c(N3CCC4(CC3)C(=O)Nc3ccccc34)ncnc2n1C [Compound 38, N,9-dimethyl-N-(1-methylethyl)-6-(2-oxo-1,2-dihydro-1′H-spiro[indole-3,4′-piperidin]-1′-yl)-9H-purine-8-carboxamide] | 5.82 to 6.30 |
| Cn1c(C(=O)NCC2(O)CC2)nc2c(N3CCC(n4c(=O)[nH]c5ccccc54)CC3)ncnc21 [Compound 12, N-[(1-hydroxycyclopropyl)methyl]-9-methyl-6-[4-(2-oxo-2,3-dihydro-1H-benzimidazol-1-yl)piperidin-1-yl]-9H-purine-8-carboxamide] | 6.60 to 7.30 |
| CC(C)Cc1nnc(-c2nc3c(N4CCC(n5c(=O)[nH]c6ccccc65)CC4)ncnc3n2C)o1 [Compound 204, 1-(1-{9-methyl-8-[5-(2-methylpropyl)-1,3,4-oxadiazol-2-yl]-9H-purin-6-yl}piperidin-4-yl)-1,3-dihydro-2H-benzimidazol-2-one] | > 7.30 |
| CCn1c(C(=O)N2CCC(F)(F)C2)nc2c(N3CCC4(CC3)C(=O)Nc3ccccc34)ncnc21 [Compound 218, 1′-{8-[(3,3-difluoropyrrolidin-1-yl)carbonyl]-9-ethyl-9H-purin-6-yl}spiro[indole-3,4′-piperidin]-2(1H)-one] | > 7.30 |
